Measurements: patent publication US20060004002A1 (priority 2004, published 2006)
Where two headings read alike, the source gives them in different places.

How the values were obtained:
Type in all cases: biochemical
[1] = molecular target: T1, Recombinant human Src (Homo sapiens, UniProt P12931); assay: Src tyrosine kinase activity assay with poly E4Y and 32P-ATP
T1 construct: made in house; host or cells: baculovirus-insect cell system
Method in brief: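 Src expressed in baculovirus-insect cells; Csk and FGFr expressed as GST fusions in E. coli. Kinase activity measured as 32P transfer from γ32P-ATP (0.2 mM, 0.2-0.4 mCi/μmol) to poly E4Y in 0.15 M EPPS-NaOH pH 8.0, 6 mM MgCl2, 10% glycerol, 0.1% Triton X-100; in ATP-variation runs (0-250 μM), poly E4Y fixed at 150 μg/ml.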

[2] = molecular target: T2, FGF receptor (FGFr); assay: FGFr tyrosine kinase activity assay with poly E4Y and 32P-ATP; conditions: NI = no inhibition
T2 construct: fused on or other part: glutathione-S-transferase (GST) from the pGEX vector
Protocol: (§1) Recombinant human Src was expressed using the baculovirus-insect cell system and purified as published (Budde et al., 1993 and 2000). Recombinant Csk and the FGF receptor (FGFr) were expressed as […] fusion proteins using the pGEX expression vector and E. coli, and purified as described (Sun & Budde, 1995).
(§2) The tyrosine kinase activity of Src, Csk and FGFr was determined using poly E4Y and ^32P-ATP. Briefly, enzymes were assayed in a reaction mixture […] consisting of 0.15 M EPPS-NaOH (pH 8.0) with 6 mM MgCl2, 0.2 mM γ^32P-ATP (0.2-0.4 mCi/μmol), 10% glycerol, 0.1% Triton X-100, and poly E4Y. Poly E4Y is a synthetic peptide whose phosphorylation is measured in this assay by the addition of the radioactively labeled phosphate from the ATP (Budde et al., 1995). […] When ATP was varied (0, 50, 100 and 250 μM), poly E4Y was kept constant at 150 μg/ml.

[3] = molecular target: T3, Recombinant Csk (Homo sapiens, UniProt P41240); assay: Csk tyrosine kinase activity assay with poly E4Y and 32P-ATP; conditions: NI = no inhibition
T3 construct: GST ('glutathione-5-transferase' [sic]); made in house; host or cells: E. coli (pGEX expression vector)
Protocol: as §1, §2

[4] = poly E4Y, 32P-ATP, NI = no inhibition, read-out: IC50 Value Src

T1 sequence (P12931 whole entry): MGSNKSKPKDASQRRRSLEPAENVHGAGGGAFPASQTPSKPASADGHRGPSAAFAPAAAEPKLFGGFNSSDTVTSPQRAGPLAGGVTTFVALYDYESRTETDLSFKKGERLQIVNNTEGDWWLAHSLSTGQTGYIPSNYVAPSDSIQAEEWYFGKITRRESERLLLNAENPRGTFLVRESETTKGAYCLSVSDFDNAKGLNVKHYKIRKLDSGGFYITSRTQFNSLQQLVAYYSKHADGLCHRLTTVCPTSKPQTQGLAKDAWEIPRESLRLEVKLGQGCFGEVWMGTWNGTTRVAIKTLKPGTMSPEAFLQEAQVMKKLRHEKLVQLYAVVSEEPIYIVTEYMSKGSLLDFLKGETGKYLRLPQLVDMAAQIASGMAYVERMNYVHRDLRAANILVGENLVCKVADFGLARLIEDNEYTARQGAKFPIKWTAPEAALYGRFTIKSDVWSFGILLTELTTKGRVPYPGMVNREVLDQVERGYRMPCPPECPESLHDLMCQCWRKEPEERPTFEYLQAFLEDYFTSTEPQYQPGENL

SMILES | IC50 [1, 4] [nM] | IC50 [2] [nM] | IC50 [3] [nM] | IC50 ([1]; especially good inhibitors of Src, screening assay 50 μg/ml poly E4Y, 0.2 mM ATP, read-out: IC50 (inhibitors of Src)) [nM]
COc1ccc(C=NNc2ncnc3c(C)c(-c4ccc(CN5CCOCC5)cc4)sc23)cc1O [Compound 46, 3-Hydroxy-4-methoxybenzaldehyde (6-(4-(morpholin-4-yl)methyl-phenyl)-7-methylthieno[3,2-d]pyrimidin-4-yl)hydrazone] | 5.5 | 102000 | 102000 | 
CCOc1ccccc1-c1sc2c(NN=Cc3ccc(O)c(Cl)c3)ncnc2c1O [Compound 92, 3-Chloro-4-hydroxybenzaldehyde (6-(2-ethoxyphenyl)-7-hydroxythieno[3,2-d]pyrimidin-4-yl)hydrazone] | 4.2 | 27700 | 11300 | 
COc1ccc(C=NNc2ncnc3c(C#N)c(-c4ccc(N)cc4)sc23)cc1O [compound 59] | 16 |  | 10000 | 
CCOc1ccccc1-c1sc2c(NN=Cc3ccco3)ncnc2c1O [Compound 121, 2-Furancarboxaldehyde (6-(2-ethoxyphenyl)-7-hydroxythieno[3,2-d]pyrimidin-4-yl)hydrazone] | 6 |  | 5000 | 
CCOc1ccccc1-c1sc2c(NN=Cc3ccc(O)c(OC)c3)ncnc2c1O [Compound 88, 4-Hydroxy-3-methoxybenzaldehyde (6-(2-ethoxyphenyl)-7-hydroxythieno[3,2-d]pyrimidin-4-yl)hydrazone] | 2.5 | 2300 | 3400 | 
COc1ccc(C=NNc2ncnc3c(C)c(-c4cccc(C(N)=NO)c4)sc23)cc1O [Compound 45] | 19 |  | 26800 | 
CCCOc1ccccc1-c1sc2c(NN=Cc3cccs3)ncnc2c1O [Compound 85] | 4.8 | 7500 | 17700 | 

The remaining compounds from weak to strong by IC50 [1, 4], led by results:

IC50 [1, 4] [nM] | IC50 [2] [nM] | IC50 [3] [nM] | IC50 ([1]; especially good inhibitors of Src, screening assay 50 μg/ml poly E4Y, 0.2 mM ATP, read-out: IC50 (inhibitors of Src)) [nM] | SMILES
72 |  | 460 | ≤ 2000 | COc1ccc(C=NNc2ncnc3c(C)c(-c4ccc(N(C)C)cc4)sc23)cc1O [Compound 42, 3-Hydroxy-4-methoxybenzaldehyde (6-(4-N,N-dimethylaminophenyl)-7-methylthieno[3,2-d]pyrimidin-4-yl)hydrazone]
2.5 | 1900 | 2900 |  | CCOc1ccccc1-c1sc2c(NN=Cc3cc(Br)c(O)c(OC)c3)ncnc2c1O [Compound 89, 3-Bromo-4-hydroxy-5-methoxybenzaldehyde (6-(2-ethoxyphenyl)-7-hydroxythieno[3,2-d]pyrimidin-4-yl)hydrazone]
1.4 |  | 110000 |  | CCOc1ccccc1-c1sc2c(NN=Cc3ccc(OCCN4CCOCC4)c(OC)c3)ncnc2c1C [Compound 54, 3-Methoxy-4-(2-(morpholin-4-yl)-ethoxy)-benzaldehyde (6-(2-ethoxyphenyl)-7-methylthieno[3,2-d]pyrimidin-4-yl)hydrazone]
1.3 |  | 2100 |  | CCOc1ccccc1-c1sc2c(NN=Cc3cc(O)c(OC)c(OC)c3)ncnc2c1O [Compound 100, 3,4-Dimethoxy-5-hydroxybenzaldehyde (6-(2-ethoxyphenyl)-7-hydroxythieno[3,2-d]pyrimidin-4-yl)hydrazone]
